Results published in ChEMBL document CHEMBL1201862, “PubChem BioAssay data set” (2004).
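Step 1: Grow cells in 96-well plates. Step 2: Expose to compound for 48 hours at 5 concentrations. Step 3: Interpolate endpoints linearly; if unreached, use highest concentration. GI50 marks 50% less growth.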 Activity calls are given as the source filed them. Cut-off read from the data, not from the text of the source: active = GI50 up to about 1.1 µM and inactive = higher.

Key:
Assay in all cases: NCI anticancer screen, dose series, 48 h
CCRF-CEM = test system: CCRF-CEM
K562 = test system: K562
SF-295 = test system: SF-295
MOLT-4 = test system: MOLT-4
HCT-116 = test system: HCT-116
CAKI-1 = test system: CAKI-1
OVCAR-4 = test system: OVCAR-4
XF498 = test system: XF498
KM12 = test system: KM12
NCI-H226 = test system: NCI-H226
OVCAR-5 = test system: OVCAR-5
LXFL 529 = test system: LXFL 529
TK-10 = test system: TK-10
A498 = test system: A498
SK-MEL-5 = test system: SK-MEL-5
KM-20L2 = test system: KM-20L2
SR = test system: SR
OVCAR-8 = test system: OVCAR-8
M14 = test system: M14
UO-31 = test system: UO-31
NCI-H460 = test system: NCI-H460
NCI-H522 = test system: NCI-H522
RXF 393 = test system: RXF 393
SF-539 = test system: SF-539
COLO 205 = test system: COLO 205
RPMI-8226 = test system: RPMI-8226
DLD-1 = test system: DLD-1
SNB-19 = test system: SNB-19
SNB-78 = test system: SNB-78
DMS-273 = test system: DMS-273
HOP-92 = test system: HOP-92
HOP-18 = test system: HOP-18
SK-OV-3 = test system: SK-OV-3
IGROV-1 = test system: IGROV-1
HOP-62 = test system: HOP-62
ACHN = test system: ACHN
A549 = test system: A549
Malme-3M = test system: Malme-3M
HCC 2998 = test system: HCC 2998
LOX IMVI = test system: LOX IMVI
786-0 = test system: 786-0
UACC-62 = test system: UACC-62
NCI-H23 = test system: NCI-H23
HCT-15 = test system: HCT-15
U-251 = test system: U-251
HT-29 = test system: HT-29
SK-MEL-2 = test system: SK-MEL-2
M19-MEL = test system: M19-MEL
SF-268 = test system: SF-268
EKVX = test system: EKVX
DMS-114 = test system: DMS-114
SK-MEL-28 = test system: SK-MEL-28
SN12C = test system: SN12C
UACC-257 = test system: UACC-257
SW-620 = test system: SW-620
OVCAR-3 = test system: OVCAR-3
SNB-75 = test system: SNB-75
HL-60 = test system: HL-60

SMILES: COc1ccc2c(=O)c(C)c(-c3ccccc3)oc2c1CN(C)C [DIMEFLINE]
- GI50 (CCRF-CEM): > 100 µM (inactive)
- GI50 (K562): > 100 µM (inactive)
- GI50 (SF-295): > 100 µM (inactive)
- GI50 (MOLT-4): > 100 µM (inactive)
- GI50 (HCT-116): > 100 µM (inactive)
- GI50 (CAKI-1): > 100 µM (inactive)
- GI50 (OVCAR-4): > 100 µM (inactive)
- GI50 (XF498): 69.3 µM (inactive)
- GI50 (KM12): > 100 µM (inactive)
- GI50 (NCI-H226): > 100 µM (inactive)
- GI50 (OVCAR-5): 65.5 µM (inactive)
- GI50 (LXFL 529): > 100 µM (inactive)
- GI50 (TK-10): > 100 µM (inactive)
- GI50 (A498): > 100 µM (inactive)
- GI50 (SK-MEL-5): > 100 µM (inactive)
- GI50 (KM-20L2): 97.7 µM (inactive)
- GI50 (SR): > 100 µM (inactive)
- GI50 (OVCAR-8): > 100 µM (inactive)
- GI50 (M14): > 100 µM (inactive)
- GI50 (UO-31): > 100 µM (inactive)
- GI50 (NCI-H460): > 100 µM (inactive)
- GI50 (NCI-H522): > 100 µM (inactive)
- GI50 (RXF 393): > 100 µM (inactive)
- GI50 (SF-539): > 100 µM (inactive)
- GI50 (COLO 205): > 100 µM (inactive)
- GI50 (RPMI-8226): > 100 µM (inactive)
- GI50 (DLD-1): > 100 µM (inactive)
- GI50 (SNB-19): > 100 µM (inactive)
- GI50 (SNB-78): > 100 µM (inactive)
- GI50 (DMS-273): > 100 µM (inactive)
- GI50 (HOP-92): > 100 µM (inactive)
- GI50 (HOP-18): > 100 µM (inactive)
- GI50 (SK-OV-3): > 100 µM (inactive)
- GI50 (IGROV-1): > 100 µM (inactive)
- GI50 (HOP-62): > 100 µM (inactive)
- GI50 (ACHN): > 100 µM (inactive)
- GI50 (A549): > 100 µM (inactive)
- GI50 (Malme-3M): > 100 µM (inactive)
- GI50 (HCC 2998): > 100 µM (inactive)
- GI50 (LOX IMVI): > 100 µM (inactive)
- GI50 (786-0): > 100 µM (inactive)
- GI50 (UACC-62): > 100 µM (inactive)
- GI50 (NCI-H23): > 100 µM (inactive)

SMILES: NC(=O)N/N=C(\C(=O)C(=O)Nc1ccc(Cl)c(C(F)(F)F)c1)c1nc2ccc(C(=O)c3ccccc3)cc2nc1O
- GI50 (CCRF-CEM): 55.8 µM (inactive)
- GI50 (K562): 48.4 µM (inactive)
- GI50 (SF-295): > 100 µM (inactive)
- GI50 (HCT-15): > 100 µM
- GI50 (MOLT-4): 35.3 µM (inactive)
- GI50 (HCT-116): > 100 µM (inactive)
- GI50 (CAKI-1): 27.5 µM (inactive)
- GI50 (OVCAR-4): 53.8 µM (inactive)
- GI50 (XF498): 9.62 µM (inactive)
- GI50 (KM12): 77.6 µM (inactive)
- GI50 (NCI-H226): 47.3 µM (inactive)
- GI50 (U-251): > 100 µM (inactive)
- GI50 (HT-29): 95.3 µM (inactive)
- GI50 (OVCAR-5): > 100 µM (inactive)
- GI50 (SK-MEL-2): > 100 µM (inactive)
- GI50 (TK-10): > 100 µM (inactive)
- GI50 (A498): 36.9 µM (inactive)
- GI50 (SK-MEL-5): 44.3 µM (inactive)
- GI50 (KM-20L2): > 100 µM (inactive)
- GI50 (M19-MEL): > 100 µM (inactive)
- GI50 (SR): 45.7 µM (inactive)
- GI50 (OVCAR-8): 88.9 µM (inactive)
- GI50 (SF-268): 70.3 µM (inactive)
- GI50 (M14): > 100 µM (inactive)
- GI50 (EKVX): 27.2 µM (inactive)
- GI50 (UO-31): 31.6 µM (inactive)
- GI50 (NCI-H460): > 100 µM (inactive)
- GI50 (NCI-H522): 46.6 µM (inactive)
- GI50 (RXF 393): 66.4 µM (inactive)
- GI50 (SF-539): > 100 µM (inactive)
- GI50 (COLO 205): > 100 µM (inactive)
- GI50 (RPMI-8226): > 100 µM (inactive)
- GI50 (SNB-19): > 100 µM (inactive)
- GI50 (DMS-114): 68.4 µM (inactive)
- GI50 (SNB-78): 76.6 µM (inactive)
- GI50 (DMS-273): > 100 µM (inactive)
- GI50 (HOP-92): 7.36 µM (inactive)
- GI50 (HOP-18): 23.7 µM (inactive)
- GI50 (SK-OV-3): 85.7 µM (inactive)
- GI50 (IGROV-1): > 100 µM (inactive)
- GI50 (SK-MEL-28): > 100 µM (inactive)
- GI50 (ACHN): 82.4 µM (inactive)
- GI50 (A549): > 100 µM (inactive)
- GI50 (SN12C): 99.5 µM (inactive)
- GI50 (Malme-3M): > 100 µM (inactive)
- GI50 (HCC 2998): > 100 µM (inactive)
- GI50 (UACC-257): 72.4 µM (inactive)
- GI50 (786-0): > 100 µM (inactive)
- GI50 (UACC-62): 59 µM (inactive)
- GI50 (SW-620): > 100 µM (inactive)
- GI50 (NCI-H23): 97.9 µM (inactive)

SMILES: Cc1nc(N)nn1C1OCC(O)C(O)C1O (stereo not given)
- GI50 (CCRF-CEM): > 100 µM (inactive)
- GI50 (K562): > 100 µM (inactive)
- GI50 (SF-295): > 100 µM (inactive)
- GI50 (HCT-15): > 100 µM
- GI50 (MOLT-4): > 100 µM (inactive)
- GI50 (OVCAR-3): > 100 µM (inactive)
- GI50 (HCT-116): > 100 µM (inactive)
- GI50 (CAKI-1): > 100 µM (inactive)
- GI50 (OVCAR-4): > 100 µM (inactive)
- GI50 (XF498): > 100 µM (inactive)
- GI50 (KM12): > 100 µM (inactive)
- GI50 (U-251): > 100 µM (inactive)
- GI50 (HT-29): > 100 µM (inactive)
- GI50 (SK-MEL-2): > 100 µM (inactive)
- GI50 (LXFL 529): > 100 µM (inactive)
- GI50 (SNB-75): 93.5 µM (inactive)
- GI50 (TK-10): > 100 µM (inactive)
- GI50 (A498): > 100 µM (inactive)
- GI50 (SK-MEL-5): > 100 µM (inactive)
- GI50 (KM-20L2): > 100 µM (inactive)
- GI50 (OVCAR-8): > 100 µM (inactive)
- GI50 (SF-268): > 100 µM (inactive)
- GI50 (M14): > 100 µM (inactive)
- GI50 (EKVX): > 100 µM (inactive)
- GI50 (UO-31): > 100 µM (inactive)
- GI50 (NCI-H460): > 100 µM (inactive)
- GI50 (NCI-H522): > 100 µM (inactive)
- GI50 (RXF 393): > 100 µM (inactive)
- GI50 (SF-539): > 100 µM (inactive)
- GI50 (COLO 205): > 100 µM (inactive)
- GI50 (RPMI-8226): > 100 µM (inactive)
- GI50 (DLD-1): > 100 µM (inactive)
- GI50 (SNB-19): > 100 µM (inactive)
- GI50 (DMS-114): > 100 µM (inactive)
- GI50 (SNB-78): > 100 µM (inactive)
- GI50 (DMS-273): > 100 µM (inactive)
- GI50 (SK-OV-3): > 100 µM (inactive)
- GI50 (IGROV-1): > 100 µM (inactive)
- GI50 (SK-MEL-28): > 100 µM (inactive)
- GI50 (HOP-62): > 100 µM (inactive)
- GI50 (ACHN): > 100 µM (inactive)
- GI50 (A549): > 100 µM (inactive)
- GI50 (SN12C): > 100 µM (inactive)
- GI50 (Malme-3M): > 100 µM (inactive)
- GI50 (HCC 2998): > 100 µM (inactive)
- GI50 (HL-60): > 100 µM (inactive)
- GI50 (UACC-257): > 100 µM (inactive)
- GI50 (786-0): > 100 µM (inactive)
- GI50 (UACC-62): > 100 µM (inactive)
- GI50 (SW-620): > 100 µM (inactive)
- GI50 (NCI-H23): > 100 µM (inactive)
